Assay results published in patent EP4563146A1 (IRBM S.P.A., priority 2023, dated 2025).
Read-outs that look alike come from different tables or passages of the source.

How the values were obtained:
[1] = target: Japanese encephalitis virus (JEV)-NS2B-NS3 protease (Japanese encephalitis virus, UniProt P32886, DEL1469-1493); experiment: JEV protease inhibition assay; assay type: biochemical
[2] = test system: ZIKV replicon; experiment: ZIKV replication inhibition assay (NanoLuc replicon in Vero cells); settings: 72 h, read-out: ZIKA Cell_Nanoluc
[3] = target: T1, West Nile Virus (WNV) NS2B-NS3 protease (West Nile virus, UniProt Q9Q6P4); experiment: WNV protease inhibition assay; assay type: biochemical; settings: Table 4; letter codes for IC50
T1 construct: NS2B1423-1470); purchased R&D 2907-SE-020
Text: WNV protease inhibition assay

[4] = 600 nM enzyme, 10 µM Pyr-RTKR-AMC substrate, 25 °C, read-out: JEV - NS3 protease
[5] = Vero cells with stable ZIKV replicon, Nano-Glo readout

Compound	IC50 [1] [µM]	EC50 ([2]; Zika virus, Vero) [µM]	IC50 [1, 4] [µM]	IC50 [3] [µM]	EC50 [2, 5] [µM]
O=C([N-]c1c[n+](C[C@H]2CC[C@@H](CNCC(F)(F)F)CC2)no1)Nc1cc(N2CCC(c3ccccc3)C2=O)cc(C(F)(F)F)c1 (stereo partly drawn) [Example 139, ((3-(2-Oxo-3-phenylpyrrolidin-1-yl)-5-(trifluoromethyl)phenyl)carbamoyl)(3-(((1s,4s)-4-(((2,2,2-trifluoroethyl)amino)methyl)cyclohexyl)-methyl)-1,2,3-oxadiazol-3-ium-5-yl)amide]	> 20	1 to 20	–	–	–
N[C@H]1CC[C@H](C[n+]2cc([N-]C(=O)Nc3cc(N4CC[C@H](c5ccccc5)C4=O)cc(C(F)(F)F)c3)on2)CC1 [Example 143, (3-(((1R,4R)-4-Aminocyclohexyl)methyl)-1,2,3-oxadiazol-3-ium-5-yl)((3-((R)-2-oxo-3-phenylpyrrolidin-1-yl)-5-(trifluoromethyl)-phenyl)carbamoyl)amide]	1 to 20	> 20	–	–	–
O=C([N-]c1c[n+](C[C@H]2CC[C@H](NCC(F)(F)F)CC2)no1)Nc1cc(N2CC[C@H](c3ccccc3)C2=O)cc(C(F)(F)F)c1 [Example 144, ((3-((R)-2-Oxo-3-phenylpyrrolidin-1-yl)-5-(trifluoromethyl)phenyl)carbamoyl)(3-(((1r,4r)-4-((2,2,2-trifluoroethyl)amino)cyclohexyl)-methyl)-1,2,3-oxadiazol-3-ium-5-yl)amide]	1 to 20	0.1 to 1	–	–	–
CN(C)C[C@H]1CC[C@H]([n+]2cc([N-]C(=O)Nc3cc(NC(=O)Cc4ccccc4)cc(C(F)(F)F)c3)on2)CC1 [Example 147, (3-((1R,4R)-4-((Dimethylamino)methyl)-cyclohexyl)-1,2,3-oxadiazol-3-ium-5-yl)((3-(2-phenylacetamido)-5-(trifluoromethyl)phenyl)-carbamoyl)amide]	–	1 to 20	1 to 20	< 0.1	–
CN(C)C[C@H]1CC[C@H]([n+]2cc([N-]C(=O)Nc3cc(NC(=O)Cc4ccc5c(c4)OCO5)cc(C(F)(F)F)c3)on2)CC1 [Example 154, ((3-(2-(Benzo[d][1,3]dioxol-5-yl)acetamido)-5-(trifluoromethyl)phenyl)carbamoyl)(3-((1R,4R)-4-((dimethylamino)methyl)cyclohexyl)-1,2,3-oxadiazol-3-ium-5-yl)amide]	–	–	> 20	1 to 20	> 20
((3-Cyclopropyl-5-(2-(phenylsulfonyl)-acetamido)phenyl)carbamoyl)(3-((1R,4R)-4-((dimethylamino)methyl)cyclohexyl)-1,2,3-oxadiazol-3-ium-5-yl)amide [Example 150]	–	–	1 to 20	< 0.1	1 to 20
